What all share (assay): growth of human tumour cells (NCI), 48 h
Assay [1] relates to ACHN renal.
Assay [2] deals with HL-60(TB) leukemia.
Assay [3] relates to SK-MEL-2 melanoma.
The subject of assay [4] is OVCAR-3 ovarian.
For assay [5], the system named is TK-10 renal.
Assay [6] has as its system SF-295 CNS.
In assay [7] the test system is DU-145 prostate.
For assay [8], the system named is EKVX NSCLC.
In assay [9] the test system is T-47D breast.
For assay [10], the system named is SR leukemia.

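Briefly, cells in 96-well plates were exposed to five compound concentrations for 48 h, and endpoints were estimated by linear interpolation. The concentration for 50% growth inhibition is given as GI50. TGI: concentration producing complete growth inhibition.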 Where only a bound is given, the exact number is not on record here.

In the case of `COc1cc(C(=O)N2CCN(c3ccccc3OC)CC2)c(N)cc1OCc1ccccc1`, the GI50 in assay [1] was 32.4 µM; in assay [2] it was 25500 nM; in assay [3] it was 28.2 µM; in assay [4], 22100 nM; in [5], 31.9 µM; in assay [6], 40.3 µM. Moreover, the GI50 was 42 µM in assay [7], 35.7 µM in [8], 26200 nM in [9] and 22500 nM in assay [10]. For the same compound, the TGI in [1] was more than 100 µM; in assay [2], 48.8 µM; in [3], 66.8 µM; in [4], 58.8 µM; in [5], 73.2 µM; in assay [6], more than 100 µM. Besides, the TGI is more than 100 µM in [7], more than 100 µM in assay [8], 99.5 µM in assay [9] and 48.7 µM in [10].
For `CC1(C)N=C(N)N=C(N)N1c1ccc(OCC(=O)N2CCOCC2)c(Cl)c1`, the GI50 was more than 100 µM in [1]; 981 nM in assay [2]; more than 100 µM in assay [3]; 5630 nM in [4]; more than 100 µM in assay [5]; 0.561 µM in assay [6]. In addition, the GI50 in assay [7] was 0.994 µM; in [8], 2.29 µM; in assay [9] it was more than 100000 nM; in assay [10], 568 nM. Moreover, the TGI in assay [1], in assay [2], in assay [3], in assay [4], in assay [5] and in assay [6] was more than 100 µM in each case. The TGI in assay [7], in assay [8], in assay [9] and in assay [10] was more than 100 µM throughout.
Regarding `CS(=O)(=O)Nc1cccc(-c2ccc3c(NC(=O)C4CC4)n[nH]c3c2)c1`, the GI50 is 12.7 µM in assay [1]; 1730 nM in [2]; 1.37 µM in assay [3]; 641 nM in [4]; 24.6 µM in [5]; 5.65 µM in [6]. Moreover, the GI50 in [7] was 6.82 µM; in assay [8], more than 24.1 µM; in [9], 1200 nM; in [10] it was 355 nM. Also, the TGI was more than 25 µM in assay [1]; 10.8 µM in [2]; more than 25 µM in assay [3]; 1.96 µM in [4]; more than 25 µM in [5]; more than 25 µM in assay [6]. Moreover, the TGI in [7], in assay [8], in assay [9] and in assay [10] was more than 25 µM throughout.
With `O=C1c2cccc3cccc(c23)C(=O)N1CCCCN1CCN(CCCCOc2ccc(-c3nc4ccc(N5CCOCC5)cc4[nH]3)cc2)CC1`, the GI50 in assay [1] is 3.19 µM; in assay [2] it was 4620 nM; in assay [3], more than 100 µM; in assay [4] it was 12100 nM; in [5] it was more than 100 µM; in [6], more than 100 µM. The GI50 is more than 100 µM in assay [7], more than 100 µM in assay [8], 15300 nM in assay [9] and 1680 nM in assay [10]. Further, the TGI in assay [1], in assay [2], in assay [3], in assay [4], in assay [5] and in assay [6] was more than 100 µM each time. For the same compound, the TGI in assay [7] is more than 100 µM; in [8], more than 100 µM; in [9], more than 100 µM; in assay [10], 3.9 µM.
With `CCN(CC)CCCNc1nc2ccccc2c2c(=O)c3cc(Cl)ccc3sc12`, the GI50 in [1] is 1.63 µM; in assay [2], 5030 nM; in assay [3] it was 10.4 µM; in assay [4], 1920 nM; in assay [5], 2.15 µM; in assay [6], 7.96 µM. For the same compound, the GI50 in assay [7] was 2.01 µM; in assay [8] it was 3.74 µM; in assay [9], 3850 nM; in assay [10], 3750 nM. Besides, the TGI is 3.22 µM in assay [1]; 23.2 µM in assay [2]; 27.5 µM in [3]; 4.15 µM in assay [4]; 3.97 µM in assay [5]; 21.9 µM in assay [6]. The TGI was 4.13 µM in [7], 17.3 µM in [8], 27.7 µM in [9] and more than 100 µM in assay [10].
`Cc1cc(NCCCCNc2ccnc3cc(Cl)ccc23)nc(Nc2ccc(C(=O)N3CCCC3)cc2)n1`: the GI50 in assay [1] is 3.6 µM; in assay [2], 202 nM; in assay [3] it was 2.18 µM; in [4], 1780 nM; in assay [5] it was 1.84 µM; in assay [6], 1.78 µM. Moreover, the GI50 in assay [7] is 3.49 µM; in [8], 4.28 µM; in assay [9], 2640 nM; in assay [10], 267 nM. Moreover, the TGI in [1] came to 11.3 µM; in assay [2], 2.27 µM; in assay [3] it was 4.27 µM; in assay [4] it was 3.81 µM; in assay [5] it was 4.25 µM; in assay [6] it was 3.64 µM. In addition, the TGI was 13.4 µM in assay [7], 15.6 µM in assay [8], 6.76 µM in assay [9] and 1.37 µM in [10].
As to `Cc1ccc(NSc2ccccc2[N+](=O)[O-])cc1`, the GI50 was 2.3 µM in assay [1]; 368 nM in [2]; 1.17 µM in [3]; 503 nM in assay [4]; 10.4 µM in assay [5]; 0.889 µM in assay [6]. In addition, the GI50 in assay [7] was 0.984 µM; in assay [8] it was 2.89 µM; in assay [9] it was 444 nM; in assay [10], 113 nM. Further, the TGI in [1] stood at 23.4 µM; in [2], 14.5 µM; in assay [3], 21.9 µM; in [4], 7.4 µM; in assay [5], 25.4 µM; in assay [6], 9.18 µM. For the same compound, the TGI in assay [7] is 15.3 µM; in [8], 22.4 µM; in assay [9] it was 40.4 µM; in assay [10], 36 µM.
Consider `O=C(N/N=c1/ccoc2cccnc12)N1CCN(c2ncccn2)CC1`, for which the GI50 is 0.0145 µM in assay [1]; 14.9 nM in assay [2]; 1.11 µM in assay [3]; less than 10 nM in [4]; 0.992 µM in assay [5]; 0.268 µM in assay [6]. The GI50 in assay [7] was 0.796 µM; in assay [8] it was 0.16 µM; in assay [9] it was less than 10 nM; in [10], 153 nM. For the same compound, the TGI in assay [1] is 13.2 µM; in assay [2], 1.69 µM; in assay [3], 8.42 µM; in assay [4], 4.46 µM; in assay [5], 8.08 µM; in assay [6], 6.03 µM. Further, the TGI was found to be 13.1 µM in assay [7], 10.6 µM in assay [8], 7.85 µM in [9] and 15.6 µM in assay [10].
Regarding `O=C(NCC(=O)N1CC[C@H](NC2CCC(O)(c3ccc(-c4ncccn4)cn3)CC2)C1)c1cccc(C(F)(F)F)c1` (stereo not given in full), the GI50 was more than 100 µM in [1]; 55400 nM in [2]; more than 100 µM in [3]; 94900 nM in assay [4]; more than 100 µM in assay [5]; 38.2 µM in assay [6]. The GI50 in [7] is more than 100 µM; in assay [8], 52.7 µM; in [9] it was 22900 nM; in assay [10], 25400 nM. Moreover, the TGI in assay [1], in assay [2], in [3], in assay [4], in [5] and in assay [6] was more than 100 µM each time. In addition, the TGI in assay [7], in [8], in assay [9] and in assay [10] was more than 100 µM each time.
`O=C(Nc1cccc([N+](=O)[O-])c1)c1ccc2ccccc2c1O`: the GI50 in assay [1] is 12.2 µM; in assay [2], 4710 nM; in assay [3], 3.18 µM; in [4] it was 2610 nM; in assay [5], 4.59 µM; in [6], 3.47 µM. The GI50 is 7.58 µM in assay [7], 2.9 µM in assay [8], 2640 nM in assay [9] and 3940 nM in assay [10]. In addition, the TGI in assay [1] was more than 95.4 µM; in [2], more than 44.5 µM; in [3], 16.1 µM; in assay [4], 8.83 µM; in assay [5], more than 47.4 µM; in assay [6], more than 82.8 µM. Besides, the TGI is more than 100 µM in [7], more than 57.2 µM in [8], more than 30.4 µM in [9] and more than 29.1 µM in assay [10].
On to `N#CCC12CC=CCC1=C(O)C(=O)c1ccc(O)cc12` (stereo not given), for which the TGI in assay [1], in assay [2], in [3], in assay [4], in [5] and in [6] was more than 100 µM in each case. Besides, the TGI in [7], in assay [8], in assay [9] and in assay [10] was more than 100 µM in each case.
In the case of `CC(C)(C)c1cn2cccc(C(=O)N3CCN(CC(=O)Nc4ccc(Cl)cc4C(=O)c4ccccc4Cl)CC3)c2n1`, the GI50 is 6.62 µM in assay [1]; more than 100000 nM in [2]; 5 µM in [3]; 3710 nM in assay [4]; 16 µM in assay [5]; 4.05 µM in [6]. The GI50 was 11.7 µM in assay [7], 5.79 µM in [8], 5330 nM in [9] and more than 100000 nM in [10]. The TGI in assay [1] is 61.4 µM; in assay [2], more than 100 µM; in assay [3], 33.6 µM; in [4], 15.5 µM; in [5] it was more than 100 µM; in assay [6], 7.18 µM. For the same compound, the TGI in assay [7] is 27.5 µM; in assay [8], 66.7 µM; in assay [9], more than 100 µM; in [10], more than 100 µM.
As to `Cn1ccnc1C(=O)/C=C/c1ccc(C(=O)Nc2ccccc2O)cc1`, the GI50 in assay [1] is 1.99 µM; in assay [2] it was 2130 nM; in assay [3], 5.9 µM; in [4] it was 2320 nM; in assay [5] it was 3.2 µM; in assay [6], 3.53 µM. In addition, the GI50 in assay [7] is 1.95 µM; in assay [8], 2.45 µM; in assay [9], 2680 nM; in assay [10], 307 nM. The TGI in [1] came out at 4.01 µM; in [2], 5.73 µM; in assay [3], 21.8 µM; in assay [4], 6.37 µM; in [5] it was 12.7 µM; in [6], 12.1 µM. Besides, the TGI was determined as 5.23 µM in assay [7], 7.09 µM in [8], 10.8 µM in assay [9] and 6.55 µM in assay [10].
Consider `CC(=O)Nc1ccc2c(c1)C(=O)c1cccc(F)c1-2`, for which the TGI in [1], in assay [2], in assay [3], in assay [4], in [5] and in assay [6] was more than 100 µM throughout. Moreover, the TGI was more than 100 µM in assay [7], more than 100 µM in assay [8], more than 100 µM in assay [9] and more than 71.4 µM in assay [10].
Regarding `O[C@@H]1CCCN1Cc1cc2cc3c(cc2c2cc(OCc4ccccc4)ccc12)OCO3`, the GI50 in [1] was 8.37 µM; in assay [2] it was 1940 nM; in assay [3], 2.23 µM; in assay [4], 3730 nM; in assay [5] it was 5.85 µM; in assay [6] it was 1.95 µM. In addition, the GI50 in assay [7] is 5.24 µM; in assay [8], 11.6 µM; in assay [9] it was 2930 nM; in assay [10], 2630 nM. Moreover, the TGI worked out at 22 µM in [1]; 4.13 µM in [2]; 4.79 µM in assay [3]; 14.5 µM in [4]; 19.8 µM in assay [5]; 4.23 µM in [6]. Besides, the TGI in [7] amounted to 21.8 µM; in [8] it was 27.3 µM; in [9] it was 11.7 µM; in assay [10] it was 7.08 µM.
For the compound `Cn1c(=O)c2[nH]c(C3CC(=O)CC(c4nc5c([nH]4)c(=O)n(C)c(=O)n5C)N3)nc2n(C)c1=O` (stereo not given), the TGI in assay [1], in assay [2], in assay [3], in assay [4], in assay [5] and in [6] was more than 100 µM in each case. Moreover, the TGI in assay [7], in assay [8], in assay [9] and in [10] was more than 100 µM throughout.

For the origin of these results see PubChem BioAssay (NCI).
